The source of these data is ChEMBL document CHEMBL2177026, “Acyl guanidine inhibitors of β-secretase (BACE-1): optimization of a micromolar hit to a nanomolar lead via iterative solid- and solution-phase library synthesis” (J Med Chem, 2012).

pIC50, pKi: −log10 of the molar value.

What all share (assay type): cell-based
Assay [1] addresses T1, Beta-secretase 1 (Homo sapiens, UniProt P56817). The experiment in a line: Ratio of IC50 for BACE1 in HEK293 cells expressing APP 695 Swedish mutant to Ki for BACE1.
Assay [2] deals with T1, Beta-secretase 1. The assay can be described thus: Displacement of [3H]BMS-599240 from BACE1 expressed in HEK293 cells. In general terms: Displacement assays read how much labelled ligand stays bound in the presence of the test substance.
The target in assay [3] is T1, Beta-secretase 1. The experiment in a line: Inhibition of BACE1 in human HEK293 cells expressing APP 695 Swedish mutant assessed as inhibition of amyloid beta (1 to 40) production after overnight incubation by ELISA. For orientation: ELISA stands for enzyme-linked immunosorbent assay.

T1 sequence (P56817 whole entry): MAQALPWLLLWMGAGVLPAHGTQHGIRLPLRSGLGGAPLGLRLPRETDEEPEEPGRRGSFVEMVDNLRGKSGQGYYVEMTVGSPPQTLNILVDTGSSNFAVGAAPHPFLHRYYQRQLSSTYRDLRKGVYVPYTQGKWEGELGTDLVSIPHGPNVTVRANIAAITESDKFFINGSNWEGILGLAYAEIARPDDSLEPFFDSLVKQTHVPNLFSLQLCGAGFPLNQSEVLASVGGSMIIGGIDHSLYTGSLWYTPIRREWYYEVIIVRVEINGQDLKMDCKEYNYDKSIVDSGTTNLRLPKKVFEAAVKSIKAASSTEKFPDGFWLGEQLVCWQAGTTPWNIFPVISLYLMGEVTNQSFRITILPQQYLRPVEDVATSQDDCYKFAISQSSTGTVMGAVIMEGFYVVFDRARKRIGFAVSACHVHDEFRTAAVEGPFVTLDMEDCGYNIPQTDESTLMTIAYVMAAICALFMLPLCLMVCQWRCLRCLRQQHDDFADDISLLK

For `COc1ccc(-c2nsc(C)c2C(=O)/N=C(\N)NCc2cc(C)c(NC(=O)CNCc3ccccc3)c(Cl)c2)cc1`, the Ratio on Beta-secretase 1 [1] was 7.

As a reminder, the pKi is the negative decadic logarithm of the Ki, by convention in mol/L. Read a low pKi as a high Ki. In the case of `COc1ccc(-c2noc(C)c2C(=O)NC(N)=NCc2ccc(Cl)c(Cl)c2)cc1`, the pKi at Beta-secretase 1 [2] is 6.04.

`CCC/C=C/c1cc(Cl)cc(CN=C(N)NC(=O)c2c(-c3ccc(OC)cc3)noc2C)c1` showed a pKi at Beta-secretase 1 [2] of 6.07.

For `COc1ccc(-c2noc(C)c2C(=O)/N=C(\N)NCc2cccc3ccccc23)cc1`, at Beta-secretase 1 [2], the pKi is 5.77.

Broadly, the pIC50 is the IC50 on a negative log10 scale, so that one unit is a factor of ten. As for `COc1ccc(-c2noc(C)c2C(=O)/N=C(\N)NCc2cc(C)c(NC(=O)C3CC3)c(Cl)c2)cc1`, the Ratio on Beta-secretase 1 [1] worked out at 16. The pKi on Beta-secretase 1 [2] is 7.70. The pIC50 on Beta-secretase 1 [3] is 6.48.

`COc1ccc(-c2noc(C)c2C(=O)/N=C(\N)NCc2cc(Cl)cc(Br)c2)cc1`: the pKi on Beta-secretase 1 [2] is 6.29.

Take `CCCOc1c(Cl)cc(CN=C(N)NC(=O)c2c(-c3ccc(OC)cc3)noc2C)cc1Cl`: the pKi at Beta-secretase 1 [2] was below 5.30.

`COc1ccc(-c2noc(C)c2C(=O)/N=C(\N)NCc2cc(Cl)cc(/C=C/CCO)c2)cc1` showed a pKi at Beta-secretase 1 [2] of 6.85.

In turn, `C=Cc1cc(Cl)cc(CN/C(N)=N/C(=O)c2c(-c3ccc(OC)cc3)noc2C)c1` showed a pKi at Beta-secretase 1 [2] of 6.37.

Compound `Cc1onc(-c2ccccc2)c1C(=O)NC(N)=NCc1cccc2ccccc12` gave a pKi at Beta-secretase 1 [2] of 5.41.

As to `COc1ccc(-c2nsc(C)c2C(=O)NC(N)=NCc2cc(C)c(NC(=O)CNCc3ccccc3)c(Cl)c2)cc1`, the pKi on Beta-secretase 1 [2] is 8.00. At Beta-secretase 1 [3], the pIC50 is 7.15.

`Cc1onc(-c2ccc(F)cc2)c1C(=O)/N=C(\N)NCc1cccc2ccccc12` showed a pKi at Beta-secretase 1 [2] of 5.74.

As for `COc1ccc(-c2nsc(C)c2C(=O)/N=C(\N)NCc2cc(C)c(NC(C)=O)c(Cl)c2)cc1`, on Beta-secretase 1 [1], the Ratio worked out at 12.

At Beta-secretase 1 [2], `Cc1onc(-c2ccc(F)cc2)c1C(=O)NC(N)=NCc1ccccc1` showed a pKi below 5.00.

Take `COc1ccc(-c2noc(C)c2C(=O)/N=C(\N)NCc2cc(C)c(NC(=O)c3ccco3)c(Cl)c2)cc1`: on Beta-secretase 1 [1], the Ratio was 23. For the same compound, the pKi on Beta-secretase 1 [2] was 7.22. The pIC50 on Beta-secretase 1 [3] is 5.85.

At Beta-secretase 1 [2], `Cc1onc(-c2ccccc2)c1C(=O)/N=C(\N)NCc1ccccc1` had a pKi below 5.00.

In the case of `COc1ccc(-c2noc(C)c2C(=O)/N=C(\N)NCc2cc(C)c(NC(=O)CCSC)c(Cl)c2)cc1`, on Beta-secretase 1 [1], the Ratio was determined as 21.

With `COc1ccc(-c2nsc(C)c2C(=O)NC(N)=NCc2cc(Cl)c(NC(=O)CNCc3ccccc3)c(Cl)c2)cc1`, the pKi at Beta-secretase 1 [2] is 8.22. The pIC50 at Beta-secretase 1 [3] is 6.85.

Consider `COc1ccc(-c2noc(C)c2C(=O)/N=C(\N)NCc2cc(Cl)c(NC(=O)C3CC3)c(Cl)c2)cc1`, for which the Ratio at Beta-secretase 1 [1] worked out at 32. At Beta-secretase 1 [2], the pKi was 7.30. At Beta-secretase 1 [3], the negative-log IC50 (pIC50) is 5.80.

Consider `CCNCC(=O)Nc1c(Cl)cc(CN/C(N)=N/C(=O)c2c(-c3ccc(OC)cc3)nsc2C)cc1Cl`, for which the Ratio on Beta-secretase 1 [1] was 2. Moreover, the pKi on Beta-secretase 1 [2] was 8.00. In addition, at Beta-secretase 1 [3], the pIC50 is 7.70.

As for `CCC(=O)Nc1c(C)cc(CN=C(N)NC(=O)c2c(-c3ccc(OC)cc3)noc2C)cc1Cl`, the pKi on Beta-secretase 1 [2] was 7.40. Besides, the pIC50 at Beta-secretase 1 [3] is 6.11.

In the case of `COc1ccc(-c2noc(C)c2C(=O)NC(N)=NCc2cc(Cl)c(N)c(Cl)c2)cc1`, on Beta-secretase 1 [2], the pKi was 6.92.

`COC/C=C/c1cc(Cl)cc(CN/C(N)=N/C(=O)c2c(-c3ccc(OC)cc3)noc2C)c1` showed a pKi on Beta-secretase 1 [2] of 6.82.

Regarding `COc1ccc(-c2nsc(C)c2C(=O)/N=C(\N)NCc2cccc3ccccc23)cc1`, the pKi on Beta-secretase 1 [2] is 6.30.

`COc1ccc(-c2noc(C)c2C(=O)/N=C(\N)NCc2cc(Cl)c(NC(=O)CSC)c(Cl)c2)cc1`: at Beta-secretase 1 [1], the Ratio amounted to 40.

In turn, `COc1ccc(-c2noc(C)c2C(=O)NC(N)=NCc2cc(Cl)c(NC(=O)CSC)c(Cl)c2)cc1` showed a pKi at Beta-secretase 1 [2] of 7.30. Moreover, the pIC50 on Beta-secretase 1 [3] is 5.70.

Compound `COc1ccc(-c2noc(C)c2C(=O)NC(N)=NCc2cc(Cl)cc(-c3ccsc3)c2)cc1` showed a pKi on Beta-secretase 1 [2] of 5.92.

On to `COc1ccc(-c2nsc(C)c2C(=O)NC(N)=NCc2cc(C)c(NC(C)=O)c(Cl)c2)cc1`, for which the pKi on Beta-secretase 1 [2] is 7.70. For the same compound, the pIC50 at Beta-secretase 1 [3] is 6.62.

At Beta-secretase 1 [2], `COc1ccc(-c2nsc(C)c2C(=O)/N=C(\N)NCc2ccc3ccccc3c2)cc1` had a pKi of 6.06.

For `COc1ccc(-c2noc(C)c2C(=O)/N=C(\N)NCc2cc(Cl)c(NC(C)=O)c(Cl)c2)cc1`, the negative logarithm of the Ki (pKi) at Beta-secretase 1 [2] is 8.00. For the same compound, on Beta-secretase 1 [3], the pIC50 was 6.10.

For `COc1ccc(-c2noc(C)c2C(=O)/N=C(\N)NCc2cc(C)c(NC(=O)CN(C)C)c(Cl)c2)cc1`, the Ratio at Beta-secretase 1 [1] was found to be 2. This compound gave a pKi on Beta-secretase 1 [2] of 7.30. Moreover, at Beta-secretase 1 [3], the pIC50 is 7.05.

For the compound `CCC(=O)Nc1c(C)cc(CN/C(N)=N/C(=O)c2c(-c3ccc(OC)cc3)noc2C)cc1Cl`, the Ratio on Beta-secretase 1 [1] was determined as 19.

Consider `COc1ccc(-c2nsc(C)c2C(=O)/N=C(\N)NCc2cc(C)c(NC(=O)c3ccccc3)c(Cl)c2)cc1`, for which the Ratio on Beta-secretase 1 [1] was 13. The compound further had a pKi at Beta-secretase 1 [2] of 7.52. Further, on Beta-secretase 1 [3], the pIC50 was 6.37.

For `COc1ccc(-c2nsc(C)c2C(=O)/N=C(\N)NCc2cc(C)c(NC(=O)CN(C)C)c(Cl)c2)cc1`, at Beta-secretase 1 [1], the Ratio came out at 1.

With `COc1ccc(-c2noc(C)c2C(=O)/N=C(\N)NCc2cc(Cl)c(NC(=O)CS(C)(=O)=O)c(Cl)c2)cc1`, the Ratio on Beta-secretase 1 [1] came out at 63.

`COc1ccc(-c2[nH]nc(C)c2C(=O)/N=C(\N)NCc2cc(Cl)cc(Cl)c2)cc1`: the pKi at Beta-secretase 1 [2] is 6.68.

For the compound `COc1ccc(-c2nsc(C)c2C(=O)/N=C(\N)NCc2cc(Cl)c(NC(=O)CNCc3ccccc3)c(Cl)c2)cc1`, the Ratio on Beta-secretase 1 [1] amounted to 23.

With `COc1ccc(-c2nsc(C)c2C(=O)NC(N)=NCc2cc(C)c(NC(=O)CN(C)C)c(Cl)c2)cc1`, on Beta-secretase 1 [2], the pKi was 7.70. Also, on Beta-secretase 1 [3], the pIC50 is 7.70.

Take `COc1ccc(-c2onc(C)c2C(=O)/N=C(\N)NCc2cc(Cl)cc(Cl)c2)cc1`: the pKi on Beta-secretase 1 [2] is 6.07.

For the compound `Cc1onc(-c2ccccc2)c1C(=O)NC(N)=NCc1ccc(Cl)c(Cl)c1`, the pKi at Beta-secretase 1 [2] is 5.06.

On to `COc1ccc(-c2noc(C)c2C(=O)/N=C(\N)NCc2cc(Cl)c(O)c(Cl)c2)cc1`, for which, at Beta-secretase 1 [2], the pKi is 6.32.

`Cc1onc(-c2ccc(F)cc2)c1C(=O)/N=C(\N)NCc1ccc(Cl)c(Cl)c1` gave a pKi at Beta-secretase 1 [2] of 5.62.

Compound `COc1ccc(-c2c(C(=O)/N=C(\N)NCc3cc(Cl)cc(Cl)c3)c(C)nn2C)cc1` showed a pKi at Beta-secretase 1 [2] of 5.40.

The compound `Cc1onc(-c2ccc(F)cc2)c1C(=O)NC(N)=NCc1cc(Cl)cc(Cl)c1` had a pKi on Beta-secretase 1 [2] of 5.66.

Take `COc1ccc(-c2noc(C)c2C(=O)/N=C(\N)NCc2cc(Cl)cc(-c3cccnc3)c2)cc1`: at Beta-secretase 1 [2], the pKi was 5.74.

With `COc1ccc(-c2nsc(C)c2C(=O)/N=C(\N)NCc2cc(Cl)cc(Cl)c2)cc1`, at Beta-secretase 1 [2], the pKi is 6.54. Also, the pIC50 at Beta-secretase 1 [3] is below 5.30.

`COc1ccc(-c2noc(C)c2C(=O)/N=C(\N)NCc2cc(C)cc(C)c2)cc1` showed a pKi at Beta-secretase 1 [2] of 6.55.

`COc1ccc(-c2nsc(C)c2C(=O)/N=C(\N)NCc2cc(Cl)c(NS(C)(=O)=O)c(Cl)c2)cc1` showed a pKi at Beta-secretase 1 [2] of 6.55.

As to `COc1ccc(-c2noc(C)c2C(=O)NC(N)=NCc2cc(Cl)c(NC(=O)CS(C)(=O)=O)c(Cl)c2)cc1`, the pKi on Beta-secretase 1 [2] was 7.52. For the same compound, the pIC50 on Beta-secretase 1 [3] is 5.72.

On to `Cc1onc(-c2ccccc2)c1C(=O)/N=C(\N)NCc1cc(Cl)cc(Cl)c1`, for which the negative-log Ki (pKi) on Beta-secretase 1 [2] was 5.41.

`COc1ccc(-c2noc(C)c2C(=O)/N=C(\N)NCc2ccccc2)cc1` showed a pKi at Beta-secretase 1 [2] of 5.40.

Turning to `COc1ccc(-c2noc(C)c2C(=O)NC(N)=NCc2cc(C)c(NC(=O)CCSC)c(Cl)c2)cc1`, the pKi on Beta-secretase 1 [2] was 7.52. In addition, the pIC50 on Beta-secretase 1 [3] was 6.19.
